Values quoted from earlier work in US9079157B2, “Protein removal agent” (Thermo Fisher Scientific Baltics, UAB, priority 2012, dated 2015).

tested on: enzymes; settings: referenced in the BRENDA database

Number of inhibited enzymes | Compound
0 | O=C(O)CCCCCCC(=O)O [suberic, suberic acid]
3 | O=C(O)CCCCCC(=O)O [pimelic, pimelic acid]
115 | O=C(O)CCC(=O)O [succinic, succinic acid]

Second part, the molecule before the results:

Compound | Number of inhibited enzymes
O=C(O)CCCCC(=O)O [adipic, adipic acid] | 10
O=C(O)C(=O)O [oxalic, oxalic acid] | 119
O=C(O)CCCC(=O)O [glutaric, glutaric acid] | 25
O=C(O)CC(=O)O [malonic, malonic acid] | 63
O=C(O)CC(O)(CC(=O)O)C(=O)O [citric acid] | 203
